Experimental data taken from patent publication US8097640B2, “Prophylactic or therapeutic agent for diabetic maculopathy” (Sanwa Kagaku Kenkyusho Co., Ltd., priority 2004, dated 2012).
“And” between values parts separate entries of the source, which are not always exact repeats. Equal entries are not always repeated.

Legend:
[1] = tested on: edema in the macular central fovea of diabetic monkeys; experiment: Monkey Test: thickness and volume of macular central fovea (OCT) after ischemia/reperfusion in STZ diabetic monkeys; format: in vivo, Macaca fascicularis
Method: Diabetes mellitus was induced in male monkeys (Macaca fascicularis) (3-year-old) weighing about 2.1 to 2.4 kg by intravenously injecting STZ into their foreleg vein at the dose of 80 mg/kg. Two days after the treatment with STZ, blood glucose level was measured, and monkeys with at least 200 mg/dl glucose were then used in the experiment as diabetic monkeys. Insulin was administered subcutaneously once or twice per day into monkeys showing a blood glucose level of 300 mg/dl. The set groups were the following 3 groups, and from 2 weeks after the treatment with STZ, 5% gum arabic solution or SNK-860 solution was orally administered once a day. • (1) Normal control group (4 monkeys): Given 5% gum arabic solution in a ratio of 5 ml/kg. • (2) Diabetic control group (6 monkeys): Given 5% gum arabic solution in a ratio of 5 ml/kg. • (3) Diabetic group given 32 mg/kg SNK-860 (4 monkeys): Given a suspension of SNK-860 (32 mg/5 ml) in 5% gum arabic solution in a ratio of 5 ml/kg.
After administration for 2 weeks, intraocular ischemic treatment was carried out as described below, and after the treatment was finished, the animals were maintained as usual for 7 days. Before the ischemic treatment and 7 days after treatment, the thickness and volume of the macular central fovea (in the diameter range of 1 mm from the center of the macula lutea) were measured by an OCT scanner (Stratus OCT, Carl Zeiss). Administration of the pharmacological agent was also conducted for the period (7 days) of reperfusion after the ischemic treatment.
Retinal ischemia produced by increasing intraocular pressure was in accordance with Efficacy Pharmaceutical Test Example 1. However, the size of the needle used was 25 G×½ (Terumo). After a mydriatic (Mydrin P manufactured by Santen Pharmaceutical) was dropped onto the right eye, the monkey was anesthetized by intramuscularly administering ketaral (Sankyo Life Tech). Subsequently, a local anesthetic (Benoxyl eye drop 0.4%) was dropped onto the eye, and the monkey was prevented from blinking with an eyelid speculum. Anesthesia with ketaral was additionally carried out when necessary.
The thickness and volume of the macular central fovea were measured in the following manner. After a mydriatic (Mydrin P) was dropped onto the right eye of the monkey to dilate the pupil of the eye sufficiently, the monkey was anesthetized by intramuscularly administering Ketaral. Thereafter, the monkey was allowed to sit on a monkey chair and the head was fixed. […] On the basis of the resulting cross-sectional macular image, the thickness and volume of the macular central fovea were analyzed.

[2] = tested on: patients with diabetic macular edema; experiment: Clinical Results: macula lutea thickness (OCT), corrected visual acuity and safety in patients with diabetic macular edema; format: in vivo, humans
Method: Among patients with diabetic maculopathy, 10 patients with diabetic macular edema having a retinal thickening or a hard exudates in a posterior pole of the retina were subjects. SNK-860 was orally administered in a dose of 30 mg (2 tablets each containing 15 mg SNK-860) once a day before breakfast for 8 weeks. During this test period, simultaneous use of eparlestat, intravitreal injection and sub-Tenon injection of an adrenal cortical hormone, and photocoagulation and vitrectomy were prohibited. Basic therapy of diabetes mellitus was carried out so as to give good blood glucose control throughout the test period.
Evaluation was carried out in terms of the thickness of the macular central fovea (in the diameter range of 1 mm from the center of macula lutea) and the thickness at the center of the central fovea measured by optical coherence tomography (OCT, Carl Zeiss), as well as corrected visual acuity (Log MAR).
Log MAR (Log Minimum Angle of Resolution) is one kind of logarithmic visual acuity, which is visual acuity expressed in logarithmic minimum angle of resolution. Decimal visual acuity 1.0 used frequently in Japan is 0.0 in terms of Log MAR, and decimal visual acuity 0.1 is 1.0 in Log MAR. A log MAR visual acuity of 0.1 to 0.5 corresponds to a decimal visual acuity of 0.8 to 0.32.

[3] = tested on: edema in a retinal visual cell layer of diabetic rats; experiment: Rat Test 2: edema in retinal visual cell layer after intraocular ischemia/reperfusion in STZ diabetic rats; format: in vivo
Method: The test was carried out in accordance with Efficacy Pharmacological Test Example 1. The set groups were the following 4 groups, and from 2 weeks after the treatment with STZ, 5% gum arabic solution or SNK-860 solution was orally administered once a day. • (1) Normal control group (10 rats): Given 5% gum arabic solution in a ratio of 5 ml/kg. • (2) Diabetic control group (9 rats): Given 5% gum arabic solution in a ratio of 5 ml/kg. • (3) Diabetic group given 2 mg/kg SNK-860 (10 rats): Given a suspension of SNK-860 (2 mg/5 ml) in 5% gum arabic solution in a ratio of 5 ml/kg. • (4) Diabetic group given 32 mg/kg SNK-860 (9 rats): Given a suspension of SNK-860 (32 mg/5 ml) in 5% gum arabic solution in a ratio of 5 ml/kg. Retinal ischemia produced by increasing the intraocular pressure was in accordance with Efficacy Pharmaceutical Test Example 1. Histological evaluation was also in accordance with Efficacy Pharmaceutical Test Example 1.

[4] = tested on: nuclei in the inner retinal layer (ganglion cell layer) of diabetic rats; experiment: Rat Test 1: loss of nuclei from ganglion cells after ischemia/reperfusion in STZ diabetic rats; format: in vivo, Sprague Dawley rats; conditions: 32 mg/kg oral once a day, 4 rats
Method: (§1) Diabetes mellitus was induced in male Sprague Dawley rats (8-week-old) weighing about 250 g by injecting streptozotocin (STZ manufactured by Sigma) intravenously into their tail at the dose of 60 mg/kg. One week after the treatment with STZ, serum glucose was measured, and rats with at least 300 mg/dl glucose were then used in the experiment as diabetic rats. The set groups were the following 3 groups, and after 2 weeks after the treatment with STZ, 5% gum arabic solution or SNK-860 solution was orally administered once a day. • (1) Normal control group (5 rats): Given 5% gum arabic solution in a ratio of 5 ml/kg. • (2) Diabetic control group (7 rats): Given 5% gum arabic solution in a ratio of 5 ml/kg. • (3) Diabetic group given 32 mg/kg SNK-860 (4 rats): Given a suspension of SNK-860 (32 mg/5 ml) in 5% gum arabic solution in a ratio of 5 ml/kg.
(§2) After administration for 2 weeks, intraocular ischemia was caused by the treatment described below. After the treatment was finished, the animals were maintained as usual for 2 days, and thereafter, the eyeballs were excised and histologically evaluated. Administration of the pharmacological agent was also conducted for a period (2 days) of reperfusion after ischemic treatment. […]
(§3) In each of the resulting retinal images, the thickness of the visual cell layer was measured. […]

[5] = tested on: edema in a retinal visual cell layer of diabetic rats; experiment: Rat Test 1: edema in retinal visual cell layer after intraocular ischemia/reperfusion in STZ diabetic rats; format: in vivo, Sprague Dawley rats; conditions: 32 mg/kg oral once a day, 2 weeks plus 2 days reperfusion
Method: as §1, §2, §3

[6] = 32 mg/kg oral once a day for 2 weeks, before ischemia
[7] = 32 mg/kg oral once a day, 7 days after ischemia
[8] = 30 mg oral once a day for 8 weeks, 12 eyes, mean ± standard deviation
[9] = 30 mg oral once a day for 8 weeks, out of 12 eyes
[10] = baseline before administration, 12 eyes in 10 cases, mean ± standard deviation

SMILES: NC(=O)[C@@H]1C[C@]2(NC(=O)NC2=O)c2cc(F)ccc2O1 [SNK-860, (2S,4S)-6-Fluoro-2′,5′-dioxospiro[chroman-4,4′-imidazolidine]-2-carboxamide]
- formation of edema in macular central fovea ([1]; 32 mg/kg oral once a day): formation of edema or its change was not observed
- Average macula lutea thickness, Before ischemia [1, 6]: 157 ± 6 μm
- Average macula lutea volume, Before ischemia [1, 6]: 0.123 ± 0.005 mm^3
- Average macula lutea thickness, 7 days after ischemia [1, 7]: 158 ± 2 μm
- Average macula lutea volume, 7 days after ischemia [1, 7]: 0.124 ± 0.001 mm^3
- Corrected visual acuity, Week 8 [2, 8]: 0.24 Log MAR and 0.24 ± 0.20 Log MAR
- Macula lutea thickness, Center of central fovea, Week 8 [2, 8]: 298.7 μm and 298.7 ± 90.6 μm
- Macula lutea thickness, Central fovea (diameter: 1 mm), Week 8 [2, 8]: 300.4 μm and 300.4 ± 74.4 μm
- Corrected visual acuity (eye number), 1-stage deterioration [2, 9]: 1 eyes
- Corrected visual acuity (eye number), 1-stage improvement [2, 9]: 2 eyes
- Corrected visual acuity (eye number), 2-stage improvement [2, 9]: 3 eyes
- Corrected visual acuity (eye number), Unchanged [2, 9]: 6 eyes
- side effects (safety) ([2]; 30 mg oral once a day for 8 weeks, patients): no particularly problematic side effects were recognized
- Macula lutea thickness, Center of central fovea, When initiated [2, 10]: 323.1 μm and 323.1 ± 111.4 μm
- Macula lutea thickness, Central fovea (diameter: 1 mm), When initiated [2, 10]: 324.3 μm and 324.3 ± 87.7 μm
- Corrected visual acuity, When initiated ([2]; baseline before administration, 12 eyes, mean ± standard deviation): 0.30 Log MAR and 0.30 ± 0.22 Log MAR
- inhibitory action on edema in visual cell layer ([3]; 2 mg/kg oral once a day): no inhibitory action on edema was observed
- inhibitory action on edema in visual cell layer ([3]; 32 mg/kg oral once a day): an evident inhibitory action on edema was observed
- loss of nuclei from ganglion cells [4]: loss of nuclei was not observed in all 4 rats
- edema / thickness of the visual cell layer (ischemic/re-perfused eye vs untreated eye) [5]: no edema was observed
